Assay results taken from US20240122975A1, “IN VITRO METHODS AND COMPOSITIONS FOR ENHANCING THE ACTIVATION OF DENDRITIC CELLS AND T CELLS, AND FOR INDUCING A TH-1 IMMUNE RESPONSE” (Northwest Biotherapeutics, Inc., priority 2019, published 2024).

Tested on: Immature cryopreserved C57BL/6 and BALB/c DCs
Experiment: Luminex xMAP cytokine production by cryopreserved murine immature DCs primed with TLR agonist then oxPAPC or PGPC (Example 5)
Assay type: cell-based, C57BL/6 and BALB/c mice
Settings: TLR agonist stimulated murine DCs; increasing concentrations of lipid (1-90 μg/ml, 48 hours)
Protocol: Immature cryopreserved C57BL/6 and BALB/c DCs (Cellero) were rapidly thawed in a water bath at 37° C. and the cells were resuspended in 10 times the volume of RPMI 1640/10% FBS/penicillin/streptomycin/L-glutamine/2-ME. Cells were washed twice using complete media. Thawed cells were plated in triplicate at 2×10^5 cells/well in a 96-well flat bottom TC plate. DCs were primed with 1 μg/ml of LPS (Sigma Aldrich), 1:400 dilution of hBCG (Organon Teknika/Cognate), 1 μg/ml of R848 (Sigma Aldrich), 1 μg/ml Pam2 (Invivogen), 1 μg/ml Pam3 (Invivogen), and 25 μg/ml of Poly I:C HMW (“high molecular weight”; Invivogen) for 3 hrs. Titrated concentrations of oxPAPC (Invivogen) or PGPC (Cayman)—at 1 μg/ml, 3 μg/ml, 10 μg/ml, 30 μg/ml, and 90 μg/ml—were added to appropriate samples and cultured for an additional 48 hours. Cytokine production in 100 μl of culture medium was assessed by a mouse cytokine and chemokine panel, across 26 protein targets (IFNγ; IL12 p70; IL13; IL1β; IL2; IL4; IL5; IL6; TNFα; GM-CSF; IL18; IL10; IL17A; IL22; IL23; IL27; IL9; GROα; IP10; MCP1; MCP3; MIP1α; MIP1β; MIP2; RANTES; and Eotaxin), using Luminex xMAP® multiplex technology using the manufacturer's. The xMAP system is an immunoassay system that can simultaneously detect many targets in a single sample.

CCCCCCCCCCCCCCCC(=O)OCC(COP(=O)([O-])OCC[N+](C)(C)C)OC(=O)CCCC(=O)O (stereo not shown) [PGPC, 1-palmitoyl-2-glutaryl phosphatidylcholine]
production of IL-1β: upregulated production
